Test results from patent US6699681B2, “Endothelin converting enzymes and the amyloid β peptide” (Mayo Foundation for Medical Education and Research, priority 2000, dated 2004).

Biological target: T1, SolECE-1 (Homo sapiens, UniProt P42892)
T1 construct: a recombinant soluble form of ECE was generated (SolECE-1); made in house
T1 sequence (P42892 90-770 limits assumed): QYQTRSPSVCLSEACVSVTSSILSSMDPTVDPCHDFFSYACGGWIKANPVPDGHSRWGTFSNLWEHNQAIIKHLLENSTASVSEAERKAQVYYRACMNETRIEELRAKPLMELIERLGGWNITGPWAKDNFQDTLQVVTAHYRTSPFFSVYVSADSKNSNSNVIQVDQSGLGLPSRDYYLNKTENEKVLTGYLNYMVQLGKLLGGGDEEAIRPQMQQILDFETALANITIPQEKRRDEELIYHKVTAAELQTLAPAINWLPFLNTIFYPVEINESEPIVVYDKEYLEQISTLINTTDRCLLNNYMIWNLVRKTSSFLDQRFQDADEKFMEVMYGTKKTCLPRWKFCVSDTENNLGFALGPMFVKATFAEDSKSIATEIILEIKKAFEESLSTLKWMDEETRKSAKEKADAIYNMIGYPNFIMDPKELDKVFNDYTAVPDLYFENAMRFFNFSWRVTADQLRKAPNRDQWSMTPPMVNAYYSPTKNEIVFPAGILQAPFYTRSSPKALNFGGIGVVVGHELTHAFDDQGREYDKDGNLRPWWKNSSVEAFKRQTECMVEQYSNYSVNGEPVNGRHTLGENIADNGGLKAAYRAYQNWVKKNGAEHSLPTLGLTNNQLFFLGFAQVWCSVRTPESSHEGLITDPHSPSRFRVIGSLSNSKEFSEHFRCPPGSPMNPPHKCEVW
Assay: Inhibition of Aβ degradation by SolECE-1, sandwich ELISA
Format: biochemical
Settings: inhibitor pre-incubated 15 min; phosphoramidon 150 μM; 24 hrs at 37° C.
Description: SolECE-1 (approximately 0.2 μM) was pre-incubated for 15 min at room temperature with the ECE inhibitors PD069185 (synthesized according to published methods (Ahn et al., 1998, Biochem. Biophys. Res. Comm., 243:184-190) by the Mayo Clinic Organic Chemistry Core Facility, Jacksonville, Fla.) or phosphoramidon (150 μM), or an equal volume of vehicle (DMSO or PBS, respectively) prior to incubation with synthetic Aβ40 or Aβ42 (0.01 μM) in 50 mM MES (pH 6.5) containing 0.01% C12E10, 1 mM PMSF, 100 μM leupeptin, and 20 μM pepstatin. As a control, Aβ was incubated with Ni-NTA purified proteins from non-transfected CHO cells, or in reaction buffer alone. Following incubation for 24 hrs at 37° C., the reactions were stopped by the addition of 5 mM EDTA. Aβ concentration was then analyzed using a highly specific sandwich ELISA that captures Aβ via binding of antibody BAN-50 to the N-terminus, and detects only full-length Aβ peptides ending at residue 40 (using antibody BA-27) or 42 (using antibody BC-05). Thus, Aβ that has been further hydrolyzed will not be detected using this assay.

block of the SolECE-1-induced reduction of Aβ40 and Aβ42: completely blocked
SMILES: CC(C)C[C@H](NP(=O)(O)O[C@@H]1O[C@@H](C)[C@H](O)[C@@H](O)[C@H]1O)C(=O)N[C@@H](Cc1c[nH]c2ccccc12)C(=O)O [phosphoramidon]
